Reference: US20230173113A1, “CYCLIC PEPTIDES AND THEIR CONJUGATES FOR ADDRESSING ALPHA-V-BETA-6 INTEGRIN IN VIVO” (Technische Universität München, priority 2020, published 2023)

Legend:
[1] = up to 3 h; cited from earlier work
[2] = target: αvβ3 (Homo sapiens, UniProt P05106+P06756); conditions: cited from earlier work
[3] = target: α5β1 (Homo sapiens, UniProt P05556+P08648); conditions: cited from earlier work
[4] = target: αIIbβ3 (Homo sapiens, UniProt P05106+P08514); conditions: cited from earlier work
αIIbβ3, sequence (P08514 32-1039): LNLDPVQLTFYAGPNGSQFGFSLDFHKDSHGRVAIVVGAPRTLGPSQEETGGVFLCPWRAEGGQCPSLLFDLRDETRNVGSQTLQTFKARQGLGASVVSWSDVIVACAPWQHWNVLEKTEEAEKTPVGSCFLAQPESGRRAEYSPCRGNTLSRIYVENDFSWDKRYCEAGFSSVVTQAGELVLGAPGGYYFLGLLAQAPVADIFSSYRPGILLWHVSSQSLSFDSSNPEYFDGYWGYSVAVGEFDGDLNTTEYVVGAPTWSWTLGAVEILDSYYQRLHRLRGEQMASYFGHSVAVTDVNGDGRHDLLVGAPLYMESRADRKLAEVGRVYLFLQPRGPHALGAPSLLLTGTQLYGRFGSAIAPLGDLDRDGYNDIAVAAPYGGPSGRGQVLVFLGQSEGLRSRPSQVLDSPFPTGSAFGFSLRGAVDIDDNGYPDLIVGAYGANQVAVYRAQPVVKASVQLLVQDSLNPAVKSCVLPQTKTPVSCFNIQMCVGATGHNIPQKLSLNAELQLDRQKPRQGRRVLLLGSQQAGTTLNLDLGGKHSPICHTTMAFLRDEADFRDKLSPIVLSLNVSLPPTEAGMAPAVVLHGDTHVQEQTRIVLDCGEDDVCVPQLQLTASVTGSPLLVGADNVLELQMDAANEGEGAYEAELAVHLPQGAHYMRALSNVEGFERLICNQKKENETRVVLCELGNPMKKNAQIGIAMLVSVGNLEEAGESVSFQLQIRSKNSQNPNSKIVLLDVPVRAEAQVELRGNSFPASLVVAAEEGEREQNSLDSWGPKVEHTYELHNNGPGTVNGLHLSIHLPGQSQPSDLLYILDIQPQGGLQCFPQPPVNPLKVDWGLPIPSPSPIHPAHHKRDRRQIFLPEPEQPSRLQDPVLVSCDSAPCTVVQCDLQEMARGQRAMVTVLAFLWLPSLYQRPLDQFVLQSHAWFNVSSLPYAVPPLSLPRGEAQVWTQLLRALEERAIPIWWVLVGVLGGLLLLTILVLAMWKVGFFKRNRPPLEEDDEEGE
αIIbβ3, sequence (P05106 27-788): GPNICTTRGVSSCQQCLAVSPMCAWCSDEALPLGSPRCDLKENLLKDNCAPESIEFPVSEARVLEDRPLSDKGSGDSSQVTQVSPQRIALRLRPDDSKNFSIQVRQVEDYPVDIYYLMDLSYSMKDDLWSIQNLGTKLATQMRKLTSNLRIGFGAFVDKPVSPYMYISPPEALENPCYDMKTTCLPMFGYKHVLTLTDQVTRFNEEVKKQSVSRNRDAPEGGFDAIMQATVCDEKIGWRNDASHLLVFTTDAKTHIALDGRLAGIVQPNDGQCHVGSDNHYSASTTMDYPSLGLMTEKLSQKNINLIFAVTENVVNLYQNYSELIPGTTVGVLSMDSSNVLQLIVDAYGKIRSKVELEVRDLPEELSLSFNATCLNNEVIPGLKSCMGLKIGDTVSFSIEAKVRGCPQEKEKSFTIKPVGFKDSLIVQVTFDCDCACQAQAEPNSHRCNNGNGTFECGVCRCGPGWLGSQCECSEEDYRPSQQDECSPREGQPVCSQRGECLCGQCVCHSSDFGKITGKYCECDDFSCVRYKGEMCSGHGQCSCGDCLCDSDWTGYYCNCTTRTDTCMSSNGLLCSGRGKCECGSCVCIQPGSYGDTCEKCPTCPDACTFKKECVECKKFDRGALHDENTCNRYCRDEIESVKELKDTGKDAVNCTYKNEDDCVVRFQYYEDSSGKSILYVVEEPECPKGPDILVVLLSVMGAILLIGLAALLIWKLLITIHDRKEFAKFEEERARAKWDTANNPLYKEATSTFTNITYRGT

[5] = target: αvβ6-integrin (Homo sapiens, UniProt P06756+P18564); conditions: cited from earlier work
[6] = target: αvβ5 (Homo sapiens, UniProt P06756+P18084); conditions: cited from earlier work
[7] = system: H2009 tumor-bearing SCID mice; test: biokinetics from 90-min dynamic PET scans; conditions: mouse, in vivo
Text: All animal studies have been performed in accordance with general animal welfare regulations in Germany and the institutional guidelines for the care and use of animals. H2009 human lung adenocarcinoma cells (CRL-5911; American Type Culture Collection) were cultivated as recommended by the distributor. To generate tumor xenografts, 6- to 8-week-old female CB17 SCID mice (Charles River) were inoculated with 10^7 H2009 cells in Matrigel (CultrexBME, type 3 PathClear; Trevigen, GENTAUR GmbH). Mice were used for biodistribution or PET studies when tumors had grown to a diameter of 10-12 mm (4-6 weeks after inoculation).
Mice were anaesthetized with isoflurane for intravenous administration of the radiolabeled compounds. The administered activity per mouse ranged between 10 and 15 MBq (100-200 pmol, depending on variations in timing of production and administration). PET imaging was performed on a Siemens Inveon small-animal PET system, either dynamic under isoflurane anaesthesia for 90 min, or as single frames 75 min p.i. with an acquisition time of 20 min. Data were reconstructed using Siemens Inveon Research Workspace software, employing a three-dimensional ordered subset expectation maximum (OSEM3D) algorithm without scatter and attenuation correction. For kinetic analyses, regions of interest (ROIs) were defined manually.

α5β1, sequence (P08648 42-995 limits assumed): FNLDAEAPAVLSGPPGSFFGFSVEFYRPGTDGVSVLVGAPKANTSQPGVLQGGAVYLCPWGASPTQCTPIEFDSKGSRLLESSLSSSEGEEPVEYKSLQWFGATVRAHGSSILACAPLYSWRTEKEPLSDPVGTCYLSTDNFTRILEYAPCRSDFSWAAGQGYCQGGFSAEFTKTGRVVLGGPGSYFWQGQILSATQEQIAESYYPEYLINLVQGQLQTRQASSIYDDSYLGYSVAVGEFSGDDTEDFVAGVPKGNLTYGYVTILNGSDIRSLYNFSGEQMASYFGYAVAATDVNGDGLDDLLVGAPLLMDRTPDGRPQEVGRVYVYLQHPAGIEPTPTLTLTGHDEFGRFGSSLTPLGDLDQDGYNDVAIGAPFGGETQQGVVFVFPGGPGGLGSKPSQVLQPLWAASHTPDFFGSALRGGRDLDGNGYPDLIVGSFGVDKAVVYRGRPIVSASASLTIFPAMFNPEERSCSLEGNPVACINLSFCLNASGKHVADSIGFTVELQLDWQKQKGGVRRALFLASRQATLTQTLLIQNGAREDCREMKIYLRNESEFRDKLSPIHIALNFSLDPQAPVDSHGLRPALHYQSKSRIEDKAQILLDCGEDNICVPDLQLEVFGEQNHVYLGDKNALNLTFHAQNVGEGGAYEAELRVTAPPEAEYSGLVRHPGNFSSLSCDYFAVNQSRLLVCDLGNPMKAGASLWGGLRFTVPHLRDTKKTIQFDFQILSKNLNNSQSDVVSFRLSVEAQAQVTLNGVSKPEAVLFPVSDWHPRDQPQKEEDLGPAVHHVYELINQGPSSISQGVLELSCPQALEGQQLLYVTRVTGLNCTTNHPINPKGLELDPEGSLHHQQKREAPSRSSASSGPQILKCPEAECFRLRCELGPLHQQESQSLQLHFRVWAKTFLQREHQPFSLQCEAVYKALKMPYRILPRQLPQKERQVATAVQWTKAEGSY
α5β1, sequence (P05556 21-728 limits assumed): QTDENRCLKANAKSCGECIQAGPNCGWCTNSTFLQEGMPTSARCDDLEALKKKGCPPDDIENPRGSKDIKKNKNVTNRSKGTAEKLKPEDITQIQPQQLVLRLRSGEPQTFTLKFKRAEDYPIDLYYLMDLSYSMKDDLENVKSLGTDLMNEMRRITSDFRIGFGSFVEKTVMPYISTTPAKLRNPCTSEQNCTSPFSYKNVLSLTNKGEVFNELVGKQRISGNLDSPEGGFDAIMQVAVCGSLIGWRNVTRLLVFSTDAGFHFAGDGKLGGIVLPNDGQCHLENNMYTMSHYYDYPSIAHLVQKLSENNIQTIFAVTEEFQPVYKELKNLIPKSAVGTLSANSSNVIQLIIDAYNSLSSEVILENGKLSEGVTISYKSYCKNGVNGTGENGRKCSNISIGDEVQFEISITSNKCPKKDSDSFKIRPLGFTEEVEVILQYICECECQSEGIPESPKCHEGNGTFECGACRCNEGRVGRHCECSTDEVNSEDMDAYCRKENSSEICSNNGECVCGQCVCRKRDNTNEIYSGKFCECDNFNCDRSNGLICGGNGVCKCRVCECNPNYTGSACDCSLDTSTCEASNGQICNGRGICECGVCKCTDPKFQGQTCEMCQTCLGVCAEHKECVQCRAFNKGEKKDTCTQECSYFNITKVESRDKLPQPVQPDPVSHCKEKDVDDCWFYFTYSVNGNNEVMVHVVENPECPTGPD
αvβ3, sequence (P06756 31-992 limits assumed): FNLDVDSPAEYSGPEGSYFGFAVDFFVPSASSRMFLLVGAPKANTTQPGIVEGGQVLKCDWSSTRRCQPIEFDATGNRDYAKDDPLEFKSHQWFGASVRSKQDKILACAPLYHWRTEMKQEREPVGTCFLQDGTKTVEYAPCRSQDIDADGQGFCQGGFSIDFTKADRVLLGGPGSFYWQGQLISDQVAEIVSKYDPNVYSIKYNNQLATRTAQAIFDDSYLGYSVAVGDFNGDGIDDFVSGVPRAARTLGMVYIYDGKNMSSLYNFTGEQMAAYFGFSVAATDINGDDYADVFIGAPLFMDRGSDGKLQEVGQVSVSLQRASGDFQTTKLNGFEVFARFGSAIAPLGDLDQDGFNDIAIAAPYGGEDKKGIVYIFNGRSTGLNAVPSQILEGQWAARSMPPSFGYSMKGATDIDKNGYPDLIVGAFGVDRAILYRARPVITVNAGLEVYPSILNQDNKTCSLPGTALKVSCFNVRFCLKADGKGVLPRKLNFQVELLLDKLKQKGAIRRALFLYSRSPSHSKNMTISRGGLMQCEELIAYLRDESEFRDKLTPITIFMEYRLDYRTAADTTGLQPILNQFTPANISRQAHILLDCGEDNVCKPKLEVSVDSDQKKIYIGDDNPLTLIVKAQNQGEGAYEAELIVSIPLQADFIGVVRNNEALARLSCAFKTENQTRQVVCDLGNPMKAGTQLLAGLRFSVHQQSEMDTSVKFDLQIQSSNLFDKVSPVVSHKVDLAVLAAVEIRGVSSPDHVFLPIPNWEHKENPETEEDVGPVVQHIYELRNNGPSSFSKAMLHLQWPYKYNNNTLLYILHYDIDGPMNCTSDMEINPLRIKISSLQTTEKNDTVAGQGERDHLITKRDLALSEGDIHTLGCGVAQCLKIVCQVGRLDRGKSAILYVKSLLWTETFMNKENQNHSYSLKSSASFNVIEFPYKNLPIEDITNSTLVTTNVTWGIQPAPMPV
αvβ3, sequence (P05106 27-718 limits assumed): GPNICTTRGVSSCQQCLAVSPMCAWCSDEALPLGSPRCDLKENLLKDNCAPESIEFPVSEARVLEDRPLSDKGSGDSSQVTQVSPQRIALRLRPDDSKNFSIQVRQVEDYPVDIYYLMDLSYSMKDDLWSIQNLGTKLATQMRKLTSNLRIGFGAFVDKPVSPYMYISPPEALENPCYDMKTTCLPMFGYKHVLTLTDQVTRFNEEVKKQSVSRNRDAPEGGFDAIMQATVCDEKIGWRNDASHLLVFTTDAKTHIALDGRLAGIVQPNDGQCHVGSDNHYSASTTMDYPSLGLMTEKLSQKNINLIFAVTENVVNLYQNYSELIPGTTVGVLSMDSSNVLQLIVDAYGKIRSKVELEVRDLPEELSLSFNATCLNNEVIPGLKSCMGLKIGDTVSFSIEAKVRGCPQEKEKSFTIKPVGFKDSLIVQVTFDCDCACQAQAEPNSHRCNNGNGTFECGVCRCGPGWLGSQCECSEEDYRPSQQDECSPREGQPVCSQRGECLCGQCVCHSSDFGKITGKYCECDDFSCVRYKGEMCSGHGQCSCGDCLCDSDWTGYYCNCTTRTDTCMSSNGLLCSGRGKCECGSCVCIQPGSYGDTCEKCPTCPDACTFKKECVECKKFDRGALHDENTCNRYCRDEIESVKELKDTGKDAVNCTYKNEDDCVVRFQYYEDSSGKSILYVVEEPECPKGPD

Row | Molecule | stability in human plasma [1] | affinity αvβ3 (selectivity against other integrins) [2] [nM] | affinity α5β1 (selectivity against other integrins) [3] [nM] | affinity αIIbβ3 (selectivity against other integrins) [4] [µM] | affinity to αvβ6-integrin [5] [nM] | affinity αvβ5 (selectivity against other integrins) [6] [µM] | clearance from the blood pool [7]
1 | cyclo(FRGDLAFp(NMe)K) [Phe2] | full stability | 632 | 73 | > 1 | 0.26 | > 1 | 
2 | CC(C)C[C@@H]1NC(=O)[C@H](CC(=O)O)NC(=O)CNC(=O)[C@H](CCCNC(=N)N)NC(=O)[C@H](Cc2ccc(O)cc2)NC(=O)[C@H](CCCCNC(=O)CCc2cn(CCCNC(=O)CCP(=O)(O)CN3CCN(CP(=O)(O)CCC(=O)NCCCn4cc(CCC(=O)NCCCC[C@H]5C(=O)N[C@@H](Cc6ccc(O)cc6)C(=O)N[C@@H](CCCNC(=N)N)C(=O)NCC(=O)N[C@@H](CC(=O)O)C(=O)N[C@@H](CC(C)C)C(=O)N[C@@H](C)C(=O)N[C@@H](Cc6ccccc6)C(=O)N6CCC[C@@H]6C(=O)N5C)nn4)CCN(CP(=O)(O)CCC(=O)NCCCn4cc(CCC(=O)NCCCC[C@H]5C(=O)N[C@@H](Cc6ccc(O)cc6)C(=O)N[C@@H](CCCNC(=N)N)C(=O)NCC(=O)N[C@@H](CC(=O)O)C(=O)N[C@@H](CC(C)C)C(=O)N[C@@H](C)C(=O)N[C@@H](Cc6ccccc6)C(=O)N6CCC[C@@H]6C(=O)N5C)nn4)CC3)nn2)N(C)C(=O)[C@H]2CCCN2C(=O)[C@H](Cc2ccccc2)NC(=O)[C@H](C)NC1=O [Ga-68-C-9, metal not drawn] |  |  |  |  |  |  | much faster than that of Ga-68-TRAP(Phe2)3
